The target of one assay is T1, MltR (Caur_2278) (Chloroflexus aurantiacus, UniProt A9WGF5).
T1 construct: full length, 291 residues, SeMet derivative; N-terminal His tag cut by TEV leaving Gly0; expressed in E. coli; dimer in crystal, monomer by size exclusion
T1 sequence (A9WGF5 1-291): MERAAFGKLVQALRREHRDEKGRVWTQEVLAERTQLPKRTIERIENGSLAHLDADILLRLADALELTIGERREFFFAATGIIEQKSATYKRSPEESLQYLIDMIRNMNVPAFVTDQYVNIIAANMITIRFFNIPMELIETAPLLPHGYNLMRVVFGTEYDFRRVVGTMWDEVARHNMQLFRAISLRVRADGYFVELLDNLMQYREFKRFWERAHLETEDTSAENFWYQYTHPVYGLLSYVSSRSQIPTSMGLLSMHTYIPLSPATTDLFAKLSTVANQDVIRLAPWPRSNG
Kind of assay: X-ray crystallography (SAD, […] Å). Type of assay: binding. The note with it: co-purified ligand, none added; identity tentative, modelled from electron density (related fatty acid, mixture or PEG fragment not excluded); PAS-like C-terminal domain; pH 9.1, 277 K.

Assay [1] has as its target MmyB-like transcription regulator MltR (Caur_2278) from Chloroflexus aurantiacus (Chloroflexus aurantiacus J-10-fl) (UniProt A9WGF5). Kind of assay: crystal structure; SeMet MltR, tag removed, 11.1 mg/ml; 0.2M NaCl, 10.5% polyethylene glycol 8000, 0.1M CHES pH 9.1, 277 K; space group C2, three monomers (1.5 dimers) in the asymmetric unit; bound myristic acid.

Take `CCCCCCCCCCCCCC(=O)O` [MYR, myristic acid]: the “X-ray crystallography (SAD, 2.3 Å)” value on MltR (Caur_2278) is listed as “additional electron density in the putative ligand-binding site clearly indicated the presence of a fatty acid-type ligand”.

In turn, “MmyB-like transcription regulator MltR (Caur_2278) from Chloroflexus aurantiacus (from UniProt A9WGF5 1-291) (natural protein)” returned a stoichiometry N in assay [1] of 2.

Broadly, the stoichiometry N is a count of units in the complex or per binding partner.

(Values after PMC3406030, “Structure of an MmyB-Like Regulator from C. aurantiacus, Member of a New Transcription Factor Family Linked to Antibiotic Metabolism in Actinomycetes” (PLoS ONE, 2012).)
